The values below come from ChEMBL document CHEMBL1201862, “PubChem BioAssay data set” (2004).

The source made the active and inactive calls.

By IC50 is commonly meant the midpoint of a concentration-inhibition curve. A word on the EC50: it is the concentration needed to bring the measured effect to its halfway point. Broadly, the AC50 is the midpoint of the concentration-response curve, whichever way the signal moves.

One test relates to Vero. Kind of test: Vero cell cytotoxicity, cytotoxicity control for flavivirus capping enzyme inhibitors (AID 588742). Type of test: functional. The settings on record: Chlorocebus sabaeus.
A further test has as its target Genome polyprotein (dengue virus type 2, UniProt P29990). Kind of test: Dengue-2 NS5 methyltransferase inhibitors, primary screen, biochemical, confirmation dose response (AID 588689). Type of test: functional.
Test [1] addresses T1, Heat shock factor protein 1 (Mus musculus, UniProt P38532).
T1 sequence (P38532 whole entry): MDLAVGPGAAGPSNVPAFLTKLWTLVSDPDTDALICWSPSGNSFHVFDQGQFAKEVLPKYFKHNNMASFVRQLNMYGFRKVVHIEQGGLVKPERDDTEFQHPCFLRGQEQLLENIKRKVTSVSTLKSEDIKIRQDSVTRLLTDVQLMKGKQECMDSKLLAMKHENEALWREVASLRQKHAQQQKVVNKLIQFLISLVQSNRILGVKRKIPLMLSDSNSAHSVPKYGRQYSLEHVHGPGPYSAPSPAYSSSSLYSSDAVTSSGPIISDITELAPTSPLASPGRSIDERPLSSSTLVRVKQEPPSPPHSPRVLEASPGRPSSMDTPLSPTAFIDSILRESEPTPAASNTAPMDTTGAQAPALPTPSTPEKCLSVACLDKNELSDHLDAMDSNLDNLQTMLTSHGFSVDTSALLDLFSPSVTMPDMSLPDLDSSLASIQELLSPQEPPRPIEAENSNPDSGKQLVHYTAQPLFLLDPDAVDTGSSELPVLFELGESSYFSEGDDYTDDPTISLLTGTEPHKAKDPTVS
Kind of test: HSF1 potentiators in luciferase reporter cells, confirmation, cell-based, NIH3T3, luminescence, dose retest (AID 435004).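 Also: stress induced by proteasome inhibitor MG132 added 30 min after compound; luciferase reporter driven by HSF1 response element in NIH3T3 cells; actives raise luminescence as potentiators of the MG132 stress response.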 It is filed as functional.

A further test deals with T2, Aminopeptidase N (Plasmodium falciparum FcB1/Columbia, UniProt O96935).
T2 sequence (O96935 whole entry): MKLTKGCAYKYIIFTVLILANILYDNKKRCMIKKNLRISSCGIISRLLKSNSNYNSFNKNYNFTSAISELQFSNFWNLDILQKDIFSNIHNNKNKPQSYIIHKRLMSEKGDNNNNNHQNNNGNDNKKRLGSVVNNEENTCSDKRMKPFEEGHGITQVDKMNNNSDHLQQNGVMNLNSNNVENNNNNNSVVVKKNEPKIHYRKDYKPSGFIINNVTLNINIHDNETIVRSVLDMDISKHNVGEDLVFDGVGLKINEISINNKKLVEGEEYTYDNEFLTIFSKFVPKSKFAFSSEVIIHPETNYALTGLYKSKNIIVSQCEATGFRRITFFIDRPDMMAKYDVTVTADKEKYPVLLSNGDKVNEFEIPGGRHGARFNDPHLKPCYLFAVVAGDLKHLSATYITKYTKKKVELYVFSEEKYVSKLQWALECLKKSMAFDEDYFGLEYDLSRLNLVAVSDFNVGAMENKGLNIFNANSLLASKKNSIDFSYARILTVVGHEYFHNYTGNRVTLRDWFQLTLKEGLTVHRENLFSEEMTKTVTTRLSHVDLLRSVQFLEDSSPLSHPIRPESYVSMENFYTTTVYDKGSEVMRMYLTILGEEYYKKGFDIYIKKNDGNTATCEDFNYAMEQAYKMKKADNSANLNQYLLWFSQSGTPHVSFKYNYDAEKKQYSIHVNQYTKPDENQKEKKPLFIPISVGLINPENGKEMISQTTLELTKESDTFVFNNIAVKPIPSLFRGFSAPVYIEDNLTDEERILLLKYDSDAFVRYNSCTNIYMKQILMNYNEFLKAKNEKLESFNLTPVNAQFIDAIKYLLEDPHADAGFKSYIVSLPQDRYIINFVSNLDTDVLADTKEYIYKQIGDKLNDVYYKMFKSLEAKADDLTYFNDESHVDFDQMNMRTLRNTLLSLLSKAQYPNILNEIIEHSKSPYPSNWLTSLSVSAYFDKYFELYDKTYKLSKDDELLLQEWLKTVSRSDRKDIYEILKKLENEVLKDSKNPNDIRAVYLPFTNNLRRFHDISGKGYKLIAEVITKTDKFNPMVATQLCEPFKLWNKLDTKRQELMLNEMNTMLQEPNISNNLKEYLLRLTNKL
Kind of test: P. falciparum M1AAP inhibitors, biochemical, fluorogenic H-Leu-NHMec substrate, 1536-well (AID 1445). The arrangement: species or system Plasmodium falciparum 3D7, 3D7.

A further test addresses Cytochrome P450 3A4 (Homo sapiens, UniProt P08684). The settings on record: Potency.
Test [2] concerns the target G-protein coupled receptor 55 (Homo sapiens, UniProt Q9Y2T6). Kind of test: GPR55 agonists via beta-arrestin recruitment, primary screen, imaging, U2OS cells, beta-arrestin-GFP redistribution (AID 1961). Type of test: functional. (In general: Activated receptors often draw arrestin, which recruitment assays turn into a signal.)
The target of test [3] is T3, Acyl-homoserine lactone acylase PvdQ (Pseudomonas aeruginosa (strain LESB58), UniProt Q9I194).
T3 sequence (Q9I194 whole entry): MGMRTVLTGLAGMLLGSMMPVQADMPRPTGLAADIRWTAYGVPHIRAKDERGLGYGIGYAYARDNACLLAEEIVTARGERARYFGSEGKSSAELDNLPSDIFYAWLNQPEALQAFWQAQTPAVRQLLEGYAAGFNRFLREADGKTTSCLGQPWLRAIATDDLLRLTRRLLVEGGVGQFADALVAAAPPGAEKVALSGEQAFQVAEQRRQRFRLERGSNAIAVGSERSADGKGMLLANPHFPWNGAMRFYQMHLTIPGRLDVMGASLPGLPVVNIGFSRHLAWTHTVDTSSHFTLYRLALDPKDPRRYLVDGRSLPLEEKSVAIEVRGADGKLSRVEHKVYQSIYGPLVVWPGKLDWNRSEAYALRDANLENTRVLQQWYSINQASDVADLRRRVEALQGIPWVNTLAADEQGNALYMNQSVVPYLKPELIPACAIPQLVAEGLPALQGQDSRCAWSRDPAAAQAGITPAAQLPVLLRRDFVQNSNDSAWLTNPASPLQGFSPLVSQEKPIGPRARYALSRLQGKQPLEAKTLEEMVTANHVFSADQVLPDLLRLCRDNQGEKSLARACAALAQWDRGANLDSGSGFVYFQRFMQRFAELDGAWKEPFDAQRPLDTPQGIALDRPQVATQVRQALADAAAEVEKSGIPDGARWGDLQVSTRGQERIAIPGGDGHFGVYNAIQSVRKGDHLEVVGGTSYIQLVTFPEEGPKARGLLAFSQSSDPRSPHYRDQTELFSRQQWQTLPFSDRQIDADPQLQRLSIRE
Kind of test: P. aeruginosa PvdQ acylase inhibitors, dose response, biochemical, fluorescence, plate reader and imaging, cherry-picks (AID 493231).

In the next test the target is T4, CAAX prenyl protease 2 (Saccharomyces cerevisiae S288c, UniProt Q03530).
T4 sequence (Q03530 whole entry): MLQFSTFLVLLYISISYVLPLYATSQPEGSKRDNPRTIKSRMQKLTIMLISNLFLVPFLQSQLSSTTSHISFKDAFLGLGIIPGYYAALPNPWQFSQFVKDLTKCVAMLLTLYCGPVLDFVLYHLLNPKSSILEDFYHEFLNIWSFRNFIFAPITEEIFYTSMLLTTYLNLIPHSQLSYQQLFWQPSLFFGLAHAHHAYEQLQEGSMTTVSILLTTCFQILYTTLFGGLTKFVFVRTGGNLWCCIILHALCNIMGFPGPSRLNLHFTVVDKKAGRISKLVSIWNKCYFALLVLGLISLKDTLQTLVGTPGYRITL
It is filed as biochemical.

Test [4] deals with BJ. Kind of test: cells. It is filed as functional, cell-based. Particulars: Homo sapiens.
The nature of test [5]: microbe, parasite or virus in culture. Type of test: functional. Particulars: Mycobacterium tuberculosis.
For test [6], the system named is BJ. Kind of test: cytotoxicity toward BJ-TERT fibroblasts, dose response, cell-based, RAS-independent, luminescence (AID 1933). Type of test: functional. The settings on record: Homo sapiens.
A further test has as its target T5, Streptokinase A (Streptococcus pyogenes serotype M1, UniProt P10520).
T5 sequence (P10520 whole entry): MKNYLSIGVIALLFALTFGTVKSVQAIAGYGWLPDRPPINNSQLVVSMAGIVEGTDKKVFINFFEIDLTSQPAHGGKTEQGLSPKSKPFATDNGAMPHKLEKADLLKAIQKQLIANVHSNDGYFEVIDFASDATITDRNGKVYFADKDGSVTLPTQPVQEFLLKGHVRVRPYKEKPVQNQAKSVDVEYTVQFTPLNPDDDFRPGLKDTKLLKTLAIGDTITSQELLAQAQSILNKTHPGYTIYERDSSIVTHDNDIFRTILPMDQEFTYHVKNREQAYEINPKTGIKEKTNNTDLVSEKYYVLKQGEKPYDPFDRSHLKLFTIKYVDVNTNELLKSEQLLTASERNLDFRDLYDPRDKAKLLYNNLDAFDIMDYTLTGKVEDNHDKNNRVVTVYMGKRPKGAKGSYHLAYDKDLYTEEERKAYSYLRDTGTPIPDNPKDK
Kind of test: S. pyogenes streptokinase expression inhibitors, potency, dose response, plasminogen activation absorbance, OD405 (AID 1914).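 Also: secreted streptokinase activity via plasminogen activation per viability signal from cell pellet.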 Type of test: functional, Streptococcus pyogenes M1 GAS.

Test [7] can be described thus: inhibitors of firefly luciferase expression or activity, dose response, H4 neuroglioma cells, luminescence (AID 1990). It is filed as functional, cell-based.
Test [8] addresses T6, Ubiquitin-conjugating enzyme E2 N (Homo sapiens, UniProt P61088).
T6 sequence (P61088 whole entry): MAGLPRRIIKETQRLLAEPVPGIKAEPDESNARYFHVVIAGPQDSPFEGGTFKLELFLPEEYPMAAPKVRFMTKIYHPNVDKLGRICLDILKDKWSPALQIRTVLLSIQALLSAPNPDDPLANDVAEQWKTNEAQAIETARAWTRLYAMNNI
It is filed as functional.

The nature of test [9]: cytotoxicity toward DRD oncogenic fibroblasts, dose response, cell-based, non-viral oncogenic, luminescence (AID 1934). It is filed as functional. The settings on record: Homo sapiens.
The nature of test [10]: inhibitors of SNCA 5'UTR-driven reporter translation, confirmation, H4 neuroglioma cells, luminescence (AID 1988). Type of test: functional, cell-based.
For test [11], the target named is T6, Ubiquitin-conjugating enzyme E2 N. It is filed as functional. The source holds these as a separate data set.
A short description of test [12]: NIH-3T3 fibroblast cytotoxicity, dose response, cytotoxicity control, cell-based, fluorescence, Alamar Blue, secondary assay (AID 2327).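 Also: NIH-3T3 mouse fibroblasts cultured with fluconazole at 8 µg/mL.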 It is filed as functional. On the technique in general: Resazurin is reduced to fluorescent resorufin, in cell work by metabolically active cells.
A further test addresses T7, Bcl-2-related protein A1 (Mus musculus, UniProt Q07440).
T7 sequence (Q07440 whole entry): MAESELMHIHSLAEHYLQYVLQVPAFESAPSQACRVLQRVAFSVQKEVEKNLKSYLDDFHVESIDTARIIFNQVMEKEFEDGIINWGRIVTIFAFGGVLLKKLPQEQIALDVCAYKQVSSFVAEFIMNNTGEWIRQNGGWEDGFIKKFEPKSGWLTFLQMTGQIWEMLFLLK
Type of test: functional.

A short description of test [13]: C. albicans growth with fluconazole, confirmation, fluorescence, retest (AID 2467). It is filed as functional, cell-based.
Test [14] relates to BJ. Kind of test: cytotoxicity toward BJ-TERT-LT-ST fibroblasts, dose response, cell-based, RAS-independent, luminescence (AID 1935).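 Also: BJ fibroblasts immortalized with TERT plus LT and ST oncogenes.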 Type of test: functional. The settings on record: Homo sapiens.
For another test, the system named is Streptococcus. Kind of test: Group A Streptococcus viability loss, dose response, counter-screen for streptokinase expression inhibitor project, luminescence, BacTiterGlo (AID 1915).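 Also: potency for reduction of bacterial viability or growth.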 It is filed as functional, organism-based. A general note: A counterscreen serves to expose hits that act by an unwanted route or on another target.
For test [15], the system named is Streptococcus sp. 'group A'. Kind of test: growth inhibition of control SK(-) GAS strain, dose response, counter-screen for streptokinase expression inhibitor project, luminescence, kanamycin, BacTiterGlo, confirmation (AID 1900). It is filed as functional, organism-based.
A short description of test [16]: Luminescence Cell-Based Dose Response HTS to Identify Inhibitors of 5'UTR Stem-Loop Driven Prion Protein mRNA Translation in H4 Neuroglioblastoma Cells. [Related pubchem assays: 1827 (Project Summary), 1813 (Primary HTS)]. Type of test: functional.

Sequence of Cytochrome P450 3A4 (P08684 whole entry): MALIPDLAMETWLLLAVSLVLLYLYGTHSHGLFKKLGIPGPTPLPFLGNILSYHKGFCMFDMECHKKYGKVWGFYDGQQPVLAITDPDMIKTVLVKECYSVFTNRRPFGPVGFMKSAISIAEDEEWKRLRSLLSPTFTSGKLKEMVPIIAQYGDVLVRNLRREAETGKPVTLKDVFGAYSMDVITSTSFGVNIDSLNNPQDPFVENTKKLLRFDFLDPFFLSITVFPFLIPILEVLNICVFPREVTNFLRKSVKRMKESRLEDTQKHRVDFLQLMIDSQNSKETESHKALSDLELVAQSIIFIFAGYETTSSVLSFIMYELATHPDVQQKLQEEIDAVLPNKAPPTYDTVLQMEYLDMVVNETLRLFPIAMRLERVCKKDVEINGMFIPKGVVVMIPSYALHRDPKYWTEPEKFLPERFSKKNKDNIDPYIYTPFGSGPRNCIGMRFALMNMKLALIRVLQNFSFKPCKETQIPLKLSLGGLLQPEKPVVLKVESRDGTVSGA
Sequence of G-protein coupled receptor 55 (Q9Y2T6 whole entry): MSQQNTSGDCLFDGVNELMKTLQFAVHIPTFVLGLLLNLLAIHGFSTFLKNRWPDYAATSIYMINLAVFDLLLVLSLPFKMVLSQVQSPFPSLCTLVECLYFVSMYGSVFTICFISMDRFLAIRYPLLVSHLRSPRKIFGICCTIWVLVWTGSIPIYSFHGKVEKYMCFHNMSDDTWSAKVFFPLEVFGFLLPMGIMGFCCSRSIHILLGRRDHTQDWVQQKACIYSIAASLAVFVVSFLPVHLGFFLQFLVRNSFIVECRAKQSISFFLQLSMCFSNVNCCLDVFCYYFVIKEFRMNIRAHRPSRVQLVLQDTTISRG
Sequence of Genome polyprotein (P29990 2492-3391 limits assumed): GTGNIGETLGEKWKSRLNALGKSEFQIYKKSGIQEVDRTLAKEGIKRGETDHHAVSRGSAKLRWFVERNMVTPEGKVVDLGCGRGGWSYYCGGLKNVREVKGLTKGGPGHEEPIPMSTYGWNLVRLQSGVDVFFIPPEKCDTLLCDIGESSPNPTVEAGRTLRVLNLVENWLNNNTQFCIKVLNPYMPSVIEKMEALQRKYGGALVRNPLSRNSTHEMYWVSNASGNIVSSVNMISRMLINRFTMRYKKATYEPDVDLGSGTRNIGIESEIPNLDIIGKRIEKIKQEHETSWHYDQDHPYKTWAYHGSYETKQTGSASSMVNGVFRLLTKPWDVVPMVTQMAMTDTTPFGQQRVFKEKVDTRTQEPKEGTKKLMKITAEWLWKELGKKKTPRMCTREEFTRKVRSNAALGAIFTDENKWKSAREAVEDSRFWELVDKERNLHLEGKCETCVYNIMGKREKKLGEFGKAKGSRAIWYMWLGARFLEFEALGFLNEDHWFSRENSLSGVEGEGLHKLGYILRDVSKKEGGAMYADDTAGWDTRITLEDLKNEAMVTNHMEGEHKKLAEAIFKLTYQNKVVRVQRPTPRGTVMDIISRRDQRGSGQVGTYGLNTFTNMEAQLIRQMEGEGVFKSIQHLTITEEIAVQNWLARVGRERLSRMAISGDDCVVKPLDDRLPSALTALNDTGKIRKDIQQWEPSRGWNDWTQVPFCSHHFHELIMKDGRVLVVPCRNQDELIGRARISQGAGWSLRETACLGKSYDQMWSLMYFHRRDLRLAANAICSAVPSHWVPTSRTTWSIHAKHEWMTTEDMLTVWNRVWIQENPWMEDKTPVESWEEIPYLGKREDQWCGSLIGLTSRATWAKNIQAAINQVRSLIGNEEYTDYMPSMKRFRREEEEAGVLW

`CCOc1cc([N+](=O)[O-])cc(/C=C2/NC(=O)N(Cc3ccccc3F)C2=O)c1O`: the CC50 in the test with Vero was > 40 µM (active). Moreover, the IC50 on Genome polyprotein was 58.8 µM (active); at Aminopeptidase N, 55.6 µM (active). For the same molecule, the EC50 in test [1] is > 260 µM (inactive).

Consider `C#CCCCCCCCCCCCc1ccco1`, for which the concentration at half-maximal activity (AC50) at Cytochrome P450 3A4 is 39.8 µM (inconclusive).

As for `CC(=C/c1ccccc1)/C=N/NC(=O)c1nnn(-c2nonc2N)c1CN1CCC(C)CC1`, in [2], the 50% effective concentration (EC50) was 0.601 µM (active).

As to `Cc1ccc2scc(CN3CCCC3)c2c1`, the AC50 in [3] was 5.66 µM (active).

As to `COc1cccc(-c2c(C(=O)N/N=C/c3sccc3C)nnn2-c2nonc2N)c1`, the half-maximal activity concentration (AC50) at CAAX prenyl protease 2 was 7.8 µM (active).

For the molecule `CCOC(=O)c1ccc(-c2ccc(CO)o2)cc1`, the AC50 in [3] was 11.6 µM (active).

With `COc1cc(O)c(C)c(O)c1` [2,6-DIHYDROXY-4-METHOXYTOLUENE], the AC50 on Cytochrome P450 3A4 is 39.8 µM (inconclusive).

On to `CC(C)NC(=O)[C@H]1C[C@@H]1[C@H](NC(=O)OCc1ccccc1)c1ccccc1`, for which, on Cytochrome P450 3A4, the AC50 is 7.94 µM (inconclusive).

Take `CC[n+]1c(/C=C/N(C)c2ccccc2)n(-c2ccccc2)c2ccc(-c3nc4ccccc4s3)cc21`: the EC50 in the test on BJ [4] was 2.93 µM (inconclusive); with BJ [6], 2.49 µM (inconclusive); on Streptokinase A, 13.3 µM (active); in test [7], 0.35 µM (active); in test [9], 3.03 µM (active); in [10], 0.387 µM (active). Moreover, the EC50 is 90 µM (active) in test [12]; 0.337 µM (active) in [13]; 2.7 µM (inconclusive) in the test on BJ [14]; 12 µM (active) in the test on Streptococcus; 3.27 µM (active) in test [15]; 5.72 µM (active) in [16]. In test [2], the EC50 was > 32 µM (inactive). Also, the CC50 in test [5] is 3.06 µM (active). Further, the figures for the IC50 (in [8]; in test [11]; at Bcl-2-related protein A1) were 7.42 µM (active), 9.83 µM (active) and 13.2 µM (active), respectively.
